# Assays:
# Test in all cases: relative viability (nuclei count vs DMSO), 5 days (fraction); higher = more cells survive
# BEN = test system: BEN
# In short: (§1)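 For relative viability, nuclei counts in treated wells were divided by those in vehicle wells. Lung cancer cell lines had been pin-tool dosed in 1536-well plates the day after seeding and cultured for 5 days, then fixed and stained in one step (final 0.05% Triton X-100, 1% formaldehyde, 1 ug/ml Hoechst) and imaged at 4×. Doses were one drug alone or a fixed anchor-drug dose plus five library-drug doses (not always all listed) in √10 steps, and values are duplicate-plate medians.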
# ChaGo-K-1 = test system: ChaGo-K-1
# In short: as §1
# HCC-78 = test system: HCC-78
# In short: as §1
# LC-2-ad = test system: LC-2-ad
# In short: as §1
# LCLC-97TM1 = test system: LCLC-97TM1
# In short: as §1
# LK-2 = test system: LK-2
# In short: as §1
# LU99A = test system: LU99A
# In short: as §1
# LXF-289 = test system: LXF-289
# In short: as §1
# NCI-H1355 = test system: NCI-H1355
# In short: as §1
# NCI-H1651 = test system: NCI-H1651
# In short: as §1
# NCI-H1666 = test system: NCI-H1666
# In short: as §1
# NCI-H1944 = test system: NCI-H1944
# In short: as §1
# NCI-H1975 = test system: NCI-H1975
# In short: as §1
# NCI-H2087 = test system: NCI-H2087
# In short: as §1
# NCI-H2342 = test system: NCI-H2342
# In short: as §1
# NCI-H358 = test system: NCI-H358
# In short: as §1
# NCI-H596 = test system: NCI-H596
# In short: as §1
# NCI-H650 = test system: NCI-H650
# In short: as §1
# NCI-H661 = test system: NCI-H661
# In short: as §1
# NCI-H838 = test system: NCI-H838
# In short: as §1
# PC-3 [JPC-3] = test system: PC-3 [JPC-3]
# In short: as §1
# SK-MES-1 = test system: SK-MES-1
# In short: as §1
smiles,measurement,setting,value
COc1cc2nccc(Oc3ccc(NC(=O)Nc4cc(C)on4)c(Cl)c3)c2cc1OC [Tivozanib] + COc1cccc2cc(-c3nc([C@H]4CC[C@H](C(=O)O)CC4)n4ncnc(N)c34)[nH]c12 [OSI-027] (partner 0.5 µM),relative viability,BEN; first compound 0.005 µM,0.281
same,relative viability,BEN; first compound 0.01581 µM,0.306
same,relative viability,BEN; first compound 0.05 µM,0.311
same,relative viability,BEN; first compound 0.1581 µM,0.298
same,relative viability,BEN; first compound 0.5 µM,0.318
same,relative viability,ChaGo-K-1; first compound 0.005 µM,0.601
same,relative viability,ChaGo-K-1; first compound 0.01581 µM,0.555
same,relative viability,ChaGo-K-1; first compound 0.05 µM,0.605
same,relative viability,ChaGo-K-1; first compound 0.1581 µM,0.552
same,relative viability,ChaGo-K-1; first compound 0.5 µM,0.432
same,relative viability,HCC-78; first compound 0.005 µM,0.326
same,relative viability,HCC-78; first compound 0.01581 µM,0.369
same,relative viability,HCC-78; first compound 0.05 µM,0.386
same,relative viability,HCC-78; first compound 0.1581 µM,0.31
same,relative viability,HCC-78; first compound 0.5 µM,0.316
same,relative viability,LC-2-ad; first compound 0.005 µM,0.784
same,relative viability,LC-2-ad; first compound 0.01581 µM,0.834
same,relative viability,LC-2-ad; first compound 0.05 µM,0.812
same,relative viability,LC-2-ad; first compound 0.1581 µM,0.71
same,relative viability,LC-2-ad; first compound 0.5 µM,0.512
same,relative viability,LCLC-97TM1; first compound 0.005 µM,0.52
same,relative viability,LCLC-97TM1; first compound 0.01581 µM,0.573
same,relative viability,LCLC-97TM1; first compound 0.05 µM,0.636
same,relative viability,LCLC-97TM1; first compound 0.1581 µM,0.476
same,relative viability,LCLC-97TM1; first compound 0.5 µM,0.455
same,relative viability,LK-2; first compound 0.005 µM,0.223
same,relative viability,LK-2; first compound 0.01581 µM,0.196
same,relative viability,LK-2; first compound 0.05 µM,0.244
same,relative viability,LK-2; first compound 0.1581 µM,0.172
same,relative viability,LK-2; first compound 0.5 µM,0.194
same,relative viability,LU99A; first compound 0.005 µM,0.292
same,relative viability,LU99A; first compound 0.01581 µM,0.302
same,relative viability,LU99A; first compound 0.05 µM,0.301
same,relative viability,LU99A; first compound 0.1581 µM,0.268
same,relative viability,LU99A; first compound 0.5 µM,0.238
same,relative viability,LXF-289; first compound 0.005 µM,0.812
same,relative viability,LXF-289; first compound 0.01581 µM,0.786
same,relative viability,LXF-289; first compound 0.05 µM,0.845
same,relative viability,LXF-289; first compound 0.1581 µM,0.638
same,relative viability,LXF-289; first compound 0.5 µM,0.618
same,relative viability,NCI-H1355; first compound 0.005 µM,0.419
same,relative viability,NCI-H1355; first compound 0.01581 µM,0.48
same,relative viability,NCI-H1355; first compound 0.05 µM,0.475
same,relative viability,NCI-H1355; first compound 0.1581 µM,0.273
same,relative viability,NCI-H1355; first compound 0.5 µM,0.343
same,relative viability,NCI-H1651; first compound 0.005 µM,0.759
same,relative viability,NCI-H1651; first compound 0.01581 µM,0.721
same,relative viability,NCI-H1651; first compound 0.05 µM,0.737
same,relative viability,NCI-H1651; first compound 0.1581 µM,0.497
same,relative viability,NCI-H1651; first compound 0.5 µM,0.67
same,relative viability,NCI-H1666; first compound 0.005 µM,0.927
same,relative viability,NCI-H1666; first compound 0.01581 µM,0.856
same,relative viability,NCI-H1666; first compound 0.05 µM,0.843
same,relative viability,NCI-H1666; first compound 0.1581 µM,0.799
same,relative viability,NCI-H1666; first compound 0.5 µM,0.807
same,relative viability,NCI-H1944; first compound 0.005 µM,0.396
same,relative viability,NCI-H1944; first compound 0.01581 µM,0.431
same,relative viability,NCI-H1944; first compound 0.05 µM,0.449
same,relative viability,NCI-H1944; first compound 0.1581 µM,0.344
same,relative viability,NCI-H1944; first compound 0.5 µM,0.447
same,relative viability,NCI-H1975; first compound 0.005 µM,0.673
same,relative viability,NCI-H1975; first compound 0.01581 µM,0.634
same,relative viability,NCI-H1975; first compound 0.05 µM,0.709
same,relative viability,NCI-H1975; first compound 0.1581 µM,0.565
same,relative viability,NCI-H1975; first compound 0.5 µM,0.475
same,relative viability,NCI-H2087; first compound 0.005 µM,0.461
same,relative viability,NCI-H2087; first compound 0.01581 µM,0.6
same,relative viability,NCI-H2087; first compound 0.05 µM,0.558
same,relative viability,NCI-H2087; first compound 0.1581 µM,0.376
same,relative viability,NCI-H2087; first compound 0.5 µM,0.44
same,relative viability,NCI-H2342; first compound 0.005 µM,0.67
same,relative viability,NCI-H2342; first compound 0.01581 µM,0.556
same,relative viability,NCI-H2342; first compound 0.05 µM,0.644
same,relative viability,NCI-H2342; first compound 0.5 µM,0.562
same,relative viability,NCI-H358; first compound 0.005 µM,0.751
same,relative viability,NCI-H358; first compound 0.01581 µM,0.776
same,relative viability,NCI-H358; first compound 0.05 µM,0.674
same,relative viability,NCI-H358; first compound 0.1581 µM,0.332
same,relative viability,NCI-H358; first compound 0.5 µM,0.727
same,relative viability,NCI-H596; first compound 0.005 µM,0.681
same,relative viability,NCI-H596; first compound 0.01581 µM,0.596
same,relative viability,NCI-H596; first compound 0.05 µM,0.866
same,relative viability,NCI-H596; first compound 0.5 µM,0.59
same,relative viability,NCI-H650; first compound 0.005 µM,0.489
same,relative viability,NCI-H650; first compound 0.01581 µM,0.577
same,relative viability,NCI-H650; first compound 0.05 µM,0.613
same,relative viability,NCI-H650; first compound 0.1581 µM,0.44
same,relative viability,NCI-H650; first compound 0.5 µM,0.398
same,relative viability,NCI-H661; first compound 0.005 µM,0.672
same,relative viability,NCI-H661; first compound 0.01581 µM,0.73
same,relative viability,NCI-H661; first compound 0.05 µM,0.724
same,relative viability,NCI-H661; first compound 0.1581 µM,0.646
same,relative viability,NCI-H661; first compound 0.5 µM,0.688
same,relative viability,NCI-H838; first compound 0.005 µM,0.364
same,relative viability,NCI-H838; first compound 0.01581 µM,0.404
same,relative viability,NCI-H838; first compound 0.05 µM,0.357
same,relative viability,NCI-H838; first compound 0.5 µM,0.38
same,relative viability,PC-3 [JPC-3]; first compound 0.005 µM,0.665
same,relative viability,PC-3 [JPC-3]; first compound 0.01581 µM,0.722
same,relative viability,PC-3 [JPC-3]; first compound 0.05 µM,0.774
same,relative viability,PC-3 [JPC-3]; first compound 0.1581 µM,0.591
same,relative viability,PC-3 [JPC-3]; first compound 0.5 µM,0.733
same,relative viability,SK-MES-1; first compound 0.005 µM,0.515
same,relative viability,SK-MES-1; first compound 0.01581 µM,0.573
same,relative viability,SK-MES-1; first compound 0.05 µM,0.7
same,relative viability,SK-MES-1; first compound 0.1581 µM,0.515
same,relative viability,SK-MES-1; first compound 0.5 µM,0.583

# Source: the supplement of paper PMC10307832
